Measured values: patent publication US20240279283A1, “CYCLIC PEPTIDE ANTIBIOTICS” (priority 2021, published 2024)
Bridge positions count the residues as written; N and C are the ends. Square brackets hold non-standard residues; d marks the D form. Peptide text beside a SMILES is read from it. NMePhe(4-Cl) = CN[C@@H](Cc1ccc(Cl)cc1)C(=O)O; 1Nal = N[C@@H](Cc1cccc2ccccc12)C(=O)O; His(π-Me) = Cn1cncc1C[C@H](N)C(=O)O; NMeY = CN[C@@H](Cc1ccc(O)cc1)C(=O)O; Abu = CC[C@H](N)C(=O)O

What was measured:
Assay type in all cases: cell-based
Details in all cases: LB broth, 5×10^5 CFU/ml, 37° C., 18 hours, scored by eye
E. coli 25922 = test: Minimum Inhibitory Concentration (MIC) determination, E. coli 25922; set-up: unit not given here
Method in brief: (§1)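 Peptides, diluted two-fold in LB broth from 10 mM DMSO stocks, were inoculated with 5×10^5 CFU/ml of each strain. Incubation was 18 h at 37 °C without shaking. MIC is the lowest concentration preventing visible growth, scored by eye.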

E. cloacae ATCC222 = test: Minimum Inhibitory Concentration (MIC) determination, E. cloacae ATCC222; set-up: unit not given here
Procedure: (§2) MICs were determined by performing two-fold serial dilutions of peptides in LB broth to a final volume of 0.1 ml in round-bottom 96-well assay plates (Corning Life Sciences No 3788). Peptides were initially resuspended in 100% DMSO to 10 mM and subsequently diluted in LB medium to the appropriate concentration. Each well was inoculated with 5×10^5 CFU/ml of the screening stain and incubated at 37° C. without agitation for 18 hours. Plates were scored by eye, and the lowest compound concentration preventing visible growth was determined to be the MIC.

K. pneumoniae ATCC43816 = test: Minimum Inhibitory Concentration (MIC) determination, K. pneumoniae ATCC43816; set-up: unit not given here
Procedure: as §2

E. coli BW25113 = test: Minimum Inhibitory Concentration (MIC) determination, E. coli BW25113; set-up: unit not given here
Method in brief: as §1

E. coli 25922 IMP = test: Minimum Inhibitory Concentration (MIC) determination, E. coli 25922 IMP
Method in brief: as §1

Compound	MIC E. coli 25922 WUXI::MIC (E. coli 25922)	MIC E. cloacae ATCC222 WUXI::MIC (E. cloacae ATCC222)	MIC K. pneumoniae ATCC43816 Wuxi::MIC (K. pneumoniae ATCC43816)	MIC E. coli BW25113 WUXI::MIC (E. coli BW25113)	MIC E. coli 25922 IMP WUXI::MIC (E. coli 25922 IMP)
CC[C@@H]1NC(=O)[C@H](Cc2ccccc2)NC(=O)CSC[C@@H](C(=O)NCC(N)=O)NC(=O)[C@H](C)NC(=O)[C@H](CCCNC(=N)N)NC(=O)[C@H](Cc2c[nH]cn2)NC(=O)[C@H](Cc2ccc(O)cc2)N(C)C(=O)[C@H](CCCNC(=N)N)NC(=O)[C@H](CO)NC(=O)CNC(=O)[C@H](Cc2c[nH]cn2)NC(=O)[C@H](Cc2cccc3ccccc23)NC1=O [Compound 39, (3R,6S,9S,12S,15S,18S,21S,27S,30S, 33S,36S)-N-(2-amino-2-oxo-ethyl)-36-benzyl-33-ethyl-9,18-bis(3-guanidinopropyl)-21-(hydroxymethyl)-15-[(4-hydroxyphenyl)methyl]-12,27-bis(1H-imidazol-4-ylmethyl)-6,16-dimethyl-30-(1-naphthylmethyl)-5,8,11,14,17,20,23,26,29,32,35,38-dodecaoxo-1-thia-4,7,10,13,16,19,22,25,28,31,34,37-dodecazacyclononatriacontane-3-carboxamide] ({CH2CO}-F[Abu][1Nal]HGSR[NMeY]HRACG-NH2; thioether N-12)	100	100	100	100	6.3
CC[C@@H](C)[C@H]1NC(=O)[C@@H](Cc2ccccc2)NC(=O)CSC[C@H](C(=O)NCC(N)=O)NC(=O)[C@@H](Cc2cncn2C)NC(=O)[C@@H](CCCNC(=N)N)NC(=O)[C@@H](Cc2cnc[nH]2)NC(=O)[C@@H](Cc2ccc(O)cc2)N(C)C(=O)[C@@H](CCCNC(=N)N)NC(=O)[C@@H](CO)NC(=O)CNC(=O)[C@@H](Cc2cnc[nH]2)NC(=O)[C@@H](Cc2cccc3ccccc23)NC1=O (mixture of isomers) [Compound 18]	9.65	0.78	19	19	0.00585
CC[C@@H]1NC(=O)[C@H](Cc2ccccc2)NC(=O)CSC[C@@H](C(=O)NCC(N)=O)NC(=O)[C@H](Cc2cncn2C)NC(=O)[C@H](CCCNC(=N)N)NC(=O)[C@H](Cc2c[nH]cn2)NC(=O)[C@H](Cc2ccc(Cl)cc2)N(C)C(=O)[C@H](CCCNC(=N)N)NC(=O)[C@H](CO)NC(=O)CNC(=O)[C@H](Cc2c[nH]cn2)NC(=O)[C@H](Cc2cccc3ccccc23)NC1=O [Compound 33] ({CH2CO}-F[Abu][1Nal]HGSR[NMePhe(4-Cl)]HR[His(π-Me)]CG-NH2; thioether N-12)	13	1.6	25	25	0.0005
CC(C)[C@@H]1NC(=O)[C@H](Cc2ccccc2)NC(=O)CSC[C@@H](C(=O)NCC(N)=O)NC(=O)[C@H](Cc2cnc[nH]2)NC(=O)[C@H](CCCNC(=N)N)NC(=O)[C@H](Cc2cnc[nH]2)NC(=O)[C@H](Cc2ccccc2)N(C)C(=O)[C@H](CCCNC(=N)N)NC(=O)[C@H](CO)NC(=O)CNC(=O)[C@H](Cc2cnc[nH]2)NC(=O)[C@H](Cc2c[nH]c3ccccc23)NC1=O (racemic) [Compound 1, rac-(3R,6S,9S,12S,15S,18S,21S,27S,30S, 33S,36S)-N-(2-amino-2-oxo-ethyl)-15,36-dibenzyl-9,18-bis(3-guanidinopropyl)-21-(hydroxymethyl)-6,12,27-tris(1H-imidazol-5-ylmethyl)-30-(1H-indol-3-ylmethyl)-33-isopropyl-16-methyl-5,8,11,14,17,20,23,26,29,32,35,38-dodecaoxo-1-thia-4,7,10,13,16,19,22,25,28,31,34,37-dodecazacyclononatriacontane-3-carboxamide]	50	6.3	50	100	0.031
CC[C@@H]1NC(=O)[C@H](Cc2ccccc2)NC(=O)CSC[C@@H](C(=O)NCC(N)=O)NC(=O)[C@H](Cc2cncn2C)NC(=O)[C@H](CCCNC(=N)N)NC(=O)[C@H](Cc2c[nH]cn2)NC(=O)[C@H](Cc2ccc(O)cc2)N(C)C(=O)[C@H](CCCNC(=N)N)NC(=O)[C@H](CO)NC(=O)[C@@H](CO)NC(=O)[C@H](Cc2c[nH]cn2)NC(=O)[C@H](Cc2cccc3ccccc23)NC1=O [Compound 27] ({CH2CO}-F[Abu][1Nal]H[dS]SR[NMeY]HR[His(π-Me)]CG-NH2; thioether N-12)	3.1	0.39	13	13	0.002
CC[C@@H]1NC(=O)[C@H](Cc2ccccc2)NC(=O)CSC[C@@H](C(=O)NCC(N)=O)NC(=O)[C@H](Cc2cncn2C)NC(=O)[C@H](CCCNC(=N)N)NC(=O)[C@H](C)NC(=O)[C@H](Cc2ccc(O)cc2)N(C)C(=O)[C@H](CCCNC(=N)N)NC(=O)[C@H](CO)NC(=O)CNC(=O)[C@H](Cc2c[nH]cn2)NC(=O)[C@H](Cc2cccc3ccccc23)NC1=O [Compound 37] ({CH2CO}-F[Abu][1Nal]HGSR[NMeY]AR[His(π-Me)]CG-NH2; thioether N-12)	100	100	100	100	25
CC[C@H](C)[C@@H]1NC(=O)[C@H]([C@@H](C)O)NC(=O)CNC(=O)[C@H](Cc2ccccc2)NC(=O)CSC[C@@H](C(=O)NCC(N)=O)NC(=O)[C@H](Cc2ccccc2)NC(=O)[C@H](Cc2c[nH]c3ccccc23)NC(=O)[C@H](Cc2ccc(O)cc2)NC(=O)[C@H](CCCNC(=N)N)NC(=O)[C@H](Cc2ccccc2)NC(=O)[C@H](CCCNC(=N)N)NC(=O)[C@H](CCCNC(=N)N)NC(=O)[C@H](CCCCN)NC(=O)[C@H](Cc2cnc[nH]2)NC1=O (racemic) [Compound 50]	2	>64	32	2	1
CC[C@@H]1NC(=O)[C@H](CO)NC(=O)CSC[C@@H](C(=O)NCC(N)=O)NC(=O)[C@H](Cc2cncn2C)NC(=O)[C@H](CCCNC(=N)N)NC(=O)[C@H](Cc2c[nH]cn2)NC(=O)[C@H](Cc2ccc(O)cc2)N(C)C(=O)[C@H](CCCNC(=N)N)NC(=O)[C@H](CO)NC(=O)CNC(=O)[C@H](Cc2c[nH]cn2)NC(=O)[C@H](Cc2cccc3ccccc23)NC1=O [Compound 21, (3R,6S,9S,12S,15S,18S,21S,27S,30S, 33S,36S)-N-(2-amino-2-oxo-ethyl)-33-ethyl-9,18-bis(3-guanidinopropyl)-21,36-bis(hydroxymethyl)-15-[(4-hydroxyphenyl)methyl]-12,27-bis(1H-imidazol-4-ylmethyl)-16-methyl-6-[(3-methylimidazol-4-yl)methyl]-30-(1-naphthylmethyl)-5,8,11,14,17,20,23,26,29,32,35,38-dodecaoxo-1-thia-4,7,10,13,16,19,22,25,28,31,34,37-dodecazacyclononatriacontane-3-carboxamide] ({CH2CO}-S[Abu][1Nal]HGSR[NMeY]HR[His(π-Me)]CG-NH2; thioether N-12)	50	3.1	25	50	0.063
